Experimental data: patent US11623919B2, “Heterocyclic P2X7 antagonists” (AXXAM S.P.A., priority 2017, dated 2023)

Key:
P2X7 receptor [1] = molecular target: T1, P2X7 receptor (Rattus norvegicus, UniProt Q64663); experiment: Screen Quest Fluo-8 No Wash Calcium Assay (Bz-ATP evoked Ca2+ influx, FLIPR); type: cell-based; details: rP2X7; HEK-293 cells stably transfected with P2X7 receptor, Bz-ATP at EC80, Fluo-8 NW; potency ranges A-D
T1 construct: rP2X7 (IC50; nM); other: rP2X7; HEK-293 cells stably transfected with P2X7 receptor, Bz-ATP at EC80, Fluo-8 NW; potency
T1 sequence (Q64663 1-595): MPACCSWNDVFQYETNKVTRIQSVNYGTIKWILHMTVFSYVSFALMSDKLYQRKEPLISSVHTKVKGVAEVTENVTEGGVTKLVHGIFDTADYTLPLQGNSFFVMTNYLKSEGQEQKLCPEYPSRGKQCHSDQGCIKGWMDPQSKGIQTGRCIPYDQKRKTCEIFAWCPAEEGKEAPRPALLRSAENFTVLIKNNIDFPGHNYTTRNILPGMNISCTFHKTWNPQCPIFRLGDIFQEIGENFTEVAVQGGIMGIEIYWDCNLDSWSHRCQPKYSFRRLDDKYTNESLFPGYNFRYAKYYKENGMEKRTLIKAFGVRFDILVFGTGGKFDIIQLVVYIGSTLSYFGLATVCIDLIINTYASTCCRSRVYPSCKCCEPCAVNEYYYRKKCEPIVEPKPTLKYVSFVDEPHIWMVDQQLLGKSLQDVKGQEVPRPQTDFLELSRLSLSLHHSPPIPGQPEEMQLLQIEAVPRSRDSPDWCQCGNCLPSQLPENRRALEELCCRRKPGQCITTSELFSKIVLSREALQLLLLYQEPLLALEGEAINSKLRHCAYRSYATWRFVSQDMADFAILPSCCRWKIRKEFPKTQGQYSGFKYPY
Summary of the method: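 Compounds were added to Fluo-8-loaded P2X7-transfected HEK-293 cells 5 min before an EC80 Bz-ATP challenge, and Ca2+ influx was then recorded for 3 min. Buffer held 0.3 mM Ca2+ and no Mg2+. Inhibition was normalised to A438079, giving IC50 values.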

P2X7 receptor [2] = molecular target: T2, P2X7 receptor (Homo sapiens, UniProt Q99572); experiment: YO-PRO-1 uptake assay; type: cell-based; set-up: expressed in transfected cells; details: HEK-293 cells stably transfected with P2X7 receptor; Bz-ATP EC80 (30 μM); Low Divalent Cation Assay Buffer
T2 sequence (Q99572 1-595): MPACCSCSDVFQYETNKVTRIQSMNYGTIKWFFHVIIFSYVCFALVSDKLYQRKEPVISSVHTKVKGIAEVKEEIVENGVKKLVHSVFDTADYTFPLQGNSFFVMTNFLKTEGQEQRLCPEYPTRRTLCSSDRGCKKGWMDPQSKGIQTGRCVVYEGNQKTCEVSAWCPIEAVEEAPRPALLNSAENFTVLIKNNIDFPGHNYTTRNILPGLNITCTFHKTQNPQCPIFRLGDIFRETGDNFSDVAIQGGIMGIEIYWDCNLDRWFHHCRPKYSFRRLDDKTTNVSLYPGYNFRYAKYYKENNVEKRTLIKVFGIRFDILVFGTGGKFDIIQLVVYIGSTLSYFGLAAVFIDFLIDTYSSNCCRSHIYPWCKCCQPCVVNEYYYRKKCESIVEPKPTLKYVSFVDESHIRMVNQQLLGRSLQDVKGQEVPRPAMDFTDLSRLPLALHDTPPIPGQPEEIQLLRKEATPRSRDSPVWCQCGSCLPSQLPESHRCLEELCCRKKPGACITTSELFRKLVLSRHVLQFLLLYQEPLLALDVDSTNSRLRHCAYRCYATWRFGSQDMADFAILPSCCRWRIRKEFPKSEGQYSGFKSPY
Text: YO-PRO®-1 is a fluorescent DNA-binding dye with a MW of 374 Da (Molecular Probes®, cat. Y3603). This method is based upon the presumed ability of YO-PRO®-1 to enter through the dilated or “large pore form” of P2X7 receptor and to bind to intracellular DNA whereupon it increases many fold its fluorescence intensity. The dye ha an absorption spectrum compatible with excitation at 488 nm by argon laser sources and its emission wavelength is in the range of 515-575 nm. The aim of this assay was to validate the interaction of antagonists with P2X7 receptor using an alternative readout to Ca2+-sensitive fluorescent dyes.
HEK-293 cells stably transfected with P2X7 receptor were seeded overnight un growth medium at 20,000 cell/well in 384-well plate. 24 hours later, the medium was removed, the cells were washed with Low Divalent Cation Assay Buffer (0.3 mM Ca^2+ and 0 mM Mg^2+) and then pre-loaded with 20 μL/w of 5 μM YO-PRO®-1 dye.
FLIPRTETRA fluorescence measurement immediately started. Then 10 μL/w of test compounds and reference antagonist A438079 at 3×-concentration were injected with the FLIPRTETRA and the kinetic response over a period of five minutes was monitored. A second injection of 10 μL/w of 3× Bz-ATP EC80 (30 μM) was performed with the FLIPRTETRA and the signal of the emitted fluorescence was recorded for additional 60 minutes. All the experiment was carried out with a Low Divalent Cation Assay Buffer (0.3 mM Ca^2+ and 0 mM Mg^2+).
The effect of the test compounds was measured as percent inhibition vs the reference antagonist and IC50 values were calculated accordingly.

SMILES | IC50 (P2X7 receptor [1]) | IC50 (P2X7 receptor [2])
O=c1onc(Cc2ccccc2C(F)(F)F)n1CC1CCCCC1 [Example 116, 4-(cyclohexylmethyl)-3-{[2-(trifluoromethyl)phenyl]methyl}-4,5-dihydro-1,2,4-oxadiazol-5-one] | 200 to 1000 nM | 284 nM
O=c1onc(Cc2ccc(F)cc2)n1Cc1c(F)cccc1Cl [Example 1, 4-[(2-chloro-6-fluorophenyl)methyl]-3-[(4-fluorophenyl)methyl]-4,5-dihydro-1,2,4-oxadiazol-5-one] | 200 to 1000 nM | 581 nM
O=c1onc(Cc2ccccc2Cl)n1Cc1ccc(F)cc1 [Example 76, 3-[(2-chlorophenyl)methyl]-4-[(4-fluorophenyl)methyl]-4,5-dihydro-1,2,4-oxadiazol-5-one] | 200 to 1000 nM | 168 nM
O=c1onc(Cc2cccc(F)c2)n1Cc1c(F)cccc1Cl [Example 81, 4-[(2-chloro-6-fluorophenyl)methyl]-3-[(3-fluorophenyl)methyl]-4,5-dihydro-1,2,4-oxadiazol-5-one] | 200 to 1000 nM | 619 nM
Cc1noc(C)c1Cc1noc(=O)n1CC1CCC(F)(F)CC1 [Example 211, 4-[(4,4-difluorocyclohexyl)methyl]-3-[(dimethyl-1,2-oxazol-4-yl)methyl]-4,5-dihydro-1,2,4-oxadiazol-5-one] | 200 to 1000 nM | 171 nM
O=c1onc(Cc2c(F)cccc2Cl)n1Cc1ccc(F)cc1F [Example 61, 3-[(2-chloro-6-fluorophenyl)methyl]-4-[(2,4-difluorophenyl)methyl]-4,5-dihydro-1,2,4-oxadiazol-5-one] | 200 to 1000 nM | 293 nM
O=c1onc(Cc2c(F)cccc2Cl)n1Cc1ccc(C(F)(F)F)o1 [Example 66, 3-[(2-chloro-6-fluorophenyl)methyl]-4-{[5-(trifluoromethyl)furan-2-yl]methyl}-4,5-dihydro-1,2,4-oxadiazol-5-one] | 200 to 1000 nM | 456 nM

Now from value to molecule:

IC50 (P2X7 receptor [1]) | IC50 (P2X7 receptor [2]) | SMILES
200 to 1000 nM | 435 nM | O=c1onc(Cc2c(F)cccc2Cl)n1CC1CCCCO1 (centres unmarked) [Example 94, 3-[(2-chloro-6-fluorophenyl)methyl]-4-(oxan-2-ylmethyl)-4,5-dihydro-1,2,4-oxadiazol-5-one]
200 to 1000 nM | 115 nM | Cc1cc(F)ccc1Cn1c(Cc2c(F)cccc2Cl)noc1=O [Example 25, 3-[(2-chloro-6-fluorophenyl)methyl]-4-[(4-fluoro-2-methylphenyl)methyl]-4,5-dihydro-1,2,4-oxadiazol-5-one]
< 200 nM | 329 nM | O=c1onc(Cc2c(F)cccc2Cl)n1Cc1cccc(F)c1 [Example 26, 3-[(2-chloro-6-fluorophenyl)methyl]-4-[(3-fluorophenyl)methyl]-4,5-dihydro-1,2,4-oxadiazol-5-one]
< 200 nM | 143 nM | O=c1onc(Cc2ccccc2Cl)n1CC1CCCCC1 [Example 117, 3-[(2-chlorophenyl)methyl]-4-(cyclohexylmethyl)-4,5-dihydro-1,2,4-oxadiazol-5-one]
< 200 nM | 131 nM | O=c1onc(Cc2c(F)cccc2Cl)n1CC1CCCC1 [Example 85, 3-[(2-chloro-6-fluorophenyl)methyl]-4-(cyclopentylmethyl)-4,5-dihydro-1,2,4-oxadiazol-5-one]
200 to 1000 nM | 142 nM | CC1(C)CCCCC1Cn1c(Cc2c(F)cccc2Cl)noc1=O (centres unmarked) [Example 99, 3-[(2-chloro-6-fluorophenyl)methyl]-4-[(2,2-dimethylcyclohexyl)methyl]-4,5-dihydro-1,2,4-oxadiazol-5-one]
< 200 nM | 82 nM | CC1CCCCC1Cn1c(Cc2c(F)cccc2Cl)noc1=O (centres unmarked) [Example 87, 3-[(2-chloro-6-fluorophenyl)methyl]-4-[(2-methylcyclohexyl)methyl]-4,5-dihydro-1,2,4-oxadiazol-5-one]
200 to 1000 nM | 111 nM | CC1(C)CCC(Cn2c(Cc3c(F)cccc3Cl)noc2=O)CC1 [Example 86, 3-[(2-chloro-6-fluorophenyl)methyl]-4-[(4,4-dimethylcyclohexyl)methyl]-4,5-dihydro-1,2,4-oxadiazol-5-one]
< 200 nM | 32 nM | O=c1onc(CC2CCC(F)(F)CC2)n1Cc1c(F)cccc1Cl [Example 132, 4-[(2-chloro-6-fluorophenyl)methyl]-3-[(4,4-difluorocyclohexyl)methyl]-4,5-dihydro-1,2,4-oxadiazol-5-one]
